Source: patent publication US20050267073A1, “Triheterocyclic compounds, compositions, and methods for treating cancer or viral diseases” (priority 2004, published 2005)

Experiments:
[1] = test system: C33A cervical carcinoma cells; assay: cells; type: cell-based; conditions: Homo sapiens, C-33-A; C33A; cellular ATP levels as described in Example 2; read-out: IC50 (μM) C33A, Effect on Cancer Cells Viability
From the text: (§1) […]. […] […]. The total dimethyl sulfoxide on the cells was 1%. […] […].
(§2) As depicted in Table 4, these compounds were efficient in decreasing cellular ATP levels in HI 299 and C33A cancer cell lines. Nevertheless, these compounds are believed to have utility in the in vivo methods of the invention, i.e., treatment and prevention of cancer and viral infections, respectively. It should be noted that, although this cell-based assay is believed to be indicative of anti-oncogenic activity in vivo, it is not the only useful assay for evaluating the anti-oncogenic activity of Triheterocyclic Compounds of the invention. In addition, the anti-viral and other biological activity of compounds of the invention can be determined and evaluated in other assay systems known to the skilled artisan.

[2] = test system: H1299 human non-small cell lung cancer cells; assay: Cell viability by cellular ATP levels (ViaLight), H1299 cells; type: cell-based; conditions: Homo sapiens, NCI-H1299; H1299; cellular ATP levels as described in Example 2; read-out: IC50 (μM) H1299, Effect on Cancer Cells Viability
From the text: as §1, §2

Compound	IC50 [1]	IC50 [2]
COC1=CC(c2cc3ccccc3[nH]2)=N/C1=C\c1[nH]c(C)c(I)c1C [Compound 2, 2-[5-(4-Iodo-3,5-dimethyl-1H-pyrrol-2-ylmethylene)-4-methoxy-5H-pyrrol-2-yl]-1H-indole]	0.65 µM	0.53 µM
COC1=CC(c2cc3ccccc3[nH]2)=N/C1=C\c1[nH]ccc1OC [Compound 3, 2-[4-Methoxy-5-(3-methoxy-1H-pyrrol-2-ylmethylene)-5H-pyrrol-2-yl]-1H-indole]	0.52 µM	0.3 µM
COC1=CC(c2cc3cc(OC)c(OC)cc3[nH]2)=N/C1=C\c1[nH]c(C)cc1C [Compound 4, 2-[5-(3,5-Dimethyl-1H-pyrrol-2-ylmethylene)-4-methoxy-5H-pyrrol-2-yl]-5,6-dimethoxy-1H-indole]	0.25 µM	0.215 µM
COC1=CC(c2cc3cc(OC)c(OC)cc3n2C(=O)OC(C)(C)C)=N/C1=C\c1[nH]c(C)cc1C [Compound 5, 2-[5-(3,5-Dimethyl-1H-pyrrol-2-ylmethylene)-4-methoxy-5H-pyrrol-2-yl]-5,6-dimethoxy-indole-1-carboxylic acid tert-butyl ester]	2.24 µM	2.26 µM
COC1=CC(c2[nH]c3ccccc3c2CN2CCOCC2)=N/C1=C\c1[nH]c(C)cc1C [Compound 6, 2-[5-(3,5-Dimethyl-1H-pyrrol-2-ylmethylene)-4-methoxy-5H-pyrrol-2-yl]-3-morpholin-4-ylmethyl-1H-indole]	0.19 µM	0.267 µM
COC1=CC(c2cc3cc(Br)ccc3[nH]2)=N/C1=C\c1[nH]c(C)cc1C [Compound 7, 5-Bromo-2-[5-(3,5-dimethyl-1H-pyrrol-2-ylmethylene)-4-methoxy-5H-pyrrol-2-yl]-1H-indole]	2.23 µM	1.73 µM
COC1=CC(c2[nH]c3ccccc3c2CN2CCN(c3ccccc3)CC2)=N/C1=C\c1[nH]c(C)cc1C [Compound 8, 2-[5-(3,5-Dimethyl-1H-pyrrol-2-ylmethylene)-4-methoxy-5H-pyrrol-2-yl]-3-(4-phenyl-piperazin-1-ylmethyl)-1H-indole]	1.76 µM	1.88 µM
COC1=C(CO)C(c2[nH]c3ccccc3c2CNCCO)=N/C1=C\c1[nH]c(C)cc1C [Compound 9, 2-({2-[5-(3,5-Dimethyl-1H-pyrrol-2-ylmethylene)-3-hydroxymethyl-4-methoxy-5H-pyrrol-2-yl]-1H-indol-3-ylmethyl}-amino)-ethanol]	2.21 µM	4.43 µM
CNCc1c(C2=N/C(=C\c3[nH]c(C)cc3C)C(OC)=C2CO)[nH]c2ccccc12 [Compound 10, [5-(3,5-Dimethyl-1H-pyrrol-2-ylmethylene)-4-methoxy-2-(3-methylaminomethyl-1H-indol-2-yl)-5H-pyrrol-3-yl]-methanol]	0.25 µM	0.493 µM
COC1=C(CO)C(c2[nH]c3ccccc3c2CNC(C)C)=N/C1=C\c1[nH]c(C)cc1C [Compound 11, {5-(3,5-Dimethyl-1H-pyrrol-2-ylmethylene)-2-[3-(isopropylamino-methyl)-1H-indol-2-yl]-4-methoxy-5H-pyrrol-3-yl}-methanol]	0.307 µM	0.983 µM
COC1=CC(c2[nH]c3ccccc3c2C(=O)c2ccsc2)=N/C1=C\c1[nH]c(C)cc1C [Compound 12, {2-[5-(3,5-Dimethyl-1H-pyrrol-2-ylmethylene)-4-methoxy-5H-pyrrol-2-yl]-1H-indol-3-yl}-thiophen-3-yl-methanone]	3.6 µM	2.95 µM
C=CCNCc1c(C2=N/C(=C\c3[nH]c(C)cc3C)C(OC)=C2CO)[nH]c2ccccc12 [Compound 13, [2-(3-Allylaminomethyl-1H-indol-2-yl)-5-(3,5-dimethyl-1H-pyrrol-2-ylmethylene)-4-methoxy-5H-pyrrol-3-yl]-methanol]	0.44 µM	0.717 µM
COC1=CC(c2cc3cc(OC)ccc3[nH]2)=N/C1=C\c1[nH]c(C)cc1C [Compound 15, 2-[5-(3,5-Dimethyl-1H-pyrrol-2-ylmethylene)-4-methoxy-5H-pyrrol-2-yl]-5-methoxy-1H-indole]	1.44 µM	0.935 µM
COC1=CC(c2[nH]c3ccccc3c2I)=N/C1=C\c1[nH]c(C)c(I)c1C [Compound 17, 3-Iodo-2-[5-(4-iodo-3,5-dimethyl-1H-pyrrol-2-ylmethylene)-4-methoxy-5H-pyrrol-2-yl]-1H-indole]	5.69 µM	5.37 µM
CCOC(=O)C(=O)c1c(C)[nH]c(/C=C2\N=C(c3[nH]c4ccccc4c3C(=O)C(=O)OCC)C=C2OC)c1C [Compound 20, {2-[5-(4-Ethoxyoxalyl-3,5-dimethyl-1H-pyrrol-2-ylmethylene)-4-methoxy-5H-pyrrol-2-yl]-1H-indol-3-yl}-oxo-acetic acid ethyl ester]	7.23 µM	7.98 µM
COC1=CC(c2[nH]c3ccccc3c2C(=O)c2ccc(-c3ccccn3)s2)=N/C1=C\c1[nH]c(C)cc1C [Compound 22, {2-[5-(3,5-Dimethyl-1H-pyrrol-2-ylmethylene)-4-methoxy-5H-pyrrol-2-yl]-1H-indol-3-yl}-(5-pyridin-2-yl-thiophen-2-yl)-methanone]	6.46 µM	7.19 µM
COC1=CC(c2[nH]c3ccccc3c2C(=O)c2ccoc2)=N/C1=C\c1[nH]c(C)cc1C [Compound 27, {2-[5-(3,5-Dimethyl-1H-pyrrol-2-ylmethylene)-4-methoxy-5H-pyrrol-2-yl]-1H-indol-3-yl}-furan-3-yl-methanone]	10 µM	15.3 µM
COC1=CC(c2cc3cc(OC)ccc3n2C(=O)OC(C)(C)C)=N/C1=C\c1[nH]c(C)cc1C [Compound 30, 2-[5-(3,5-Dimethyl-1H-pyrrol-2-ylmethylene)-4-methoxy-5H-pyrrol-2-yl]-5-methoxy-indole-1-carboxylic acid tert-butyl ester]	50 µM	50 µM
COC1=CC(c2cc3ccccc3n2C(=O)C(C)C)=N/C1=C\c1[nH]c(C)cc1C [Compound 35, 1-{2-[5-(3,5-Dimethyl-1H-pyrrol-2-ylmethylene)-4-methoxy-5H-pyrrol-2-yI]-indol-1-yl}-2-methyl-propan-1-one]	0.167 µM	0.197 µM
COC1=CC(c2cc3c(OC(=O)OC(C)(C)C)cccc3[nH]2)=N/C1=C\c1[nH]c(C)cc1C [Compound 36, Carbonic acid tert-butyl ester 2-[5-(3,5-dimethyl-1H-pyrrol-2-ylmethylene)-4-methoxy-5H-pyrrol-2-yl]-1H-indol-4-yl ester]	0.583 µM	0.494 µM
COC1=CC(c2[nH]c3ccccc3c2CO)=N/C1=C\c1[nH]c(C)cc1C [Compound 37]	1.29 µM	1.35 µM
Cc1cc(C)c(/C=C2\N=C(c3cc4c(OC(=O)OC(C)(C)C)cccc4[nH]3)C=C2OC(C)C)[nH]1 [Compound 38, Carbonic acid tert-butyl ester 2-[5-(3,5-dimethyl-1H-pyrrol-2-ylmethylene)-4-isopropoxy-5H-pyrrol-2-yl]-1H-indol-4-yl ester]	0.226 µM	0.342 µM
COC1=CC(c2cc3ccccc3n2C(=O)N(C)C)=N/C1=C\c1[nH]c(C)cc1C [Compound 39, 2-[5-(3,5-Dimethyl-1H-pyrrol-2-ylmethylene)-4-methoxy-5H-pyrrol-2-yl]-indole-1-carboxylic acid dimethylamide]	2.95 µM	5.67 µM
COC1=CC(c2cc3ccccc3n2CCO)=N/C1=C\c1[nH]c(C)cc1C [Compound 40, 2-{2-[5-(3,5-Dimethyl-1H-pyrrol-2-ylmethylene)-4-methoxy-5H-pyrrol-2-yl]-indol-1-yl}-ethanol]	7.17 µM	8.46 µM
COC1=CC(c2cc3ccccc3[nH]2)=N/C1=C\c1[nH]c(C)c(CCCO)c1C [Compound 41, 3-{5-[5-(1H-indol-2-yl)-3-methoxy-pyrrol-2-ylidenemethyl]-2,4-dimethyl-1H-pyrrol-3-yl}-propan-1-ol]	1.79 µM	3.35 µM
Cc1cc(C)c(/C=C2/N=C(c3cc4cc(F)ccc4[nH]3)C=C2OC(C)C)[nH]1 [Compound 42, 2-[5-(3,5-Dimethyl-1H-pyrrol-2-ylmeythylene)-4-isopropoxy-5H-pyrrol-2-yl]-5-fluoro-1H-indole]	0.358 µM	0.458 µM
COC1=CC(c2cc3ccccc3n2C(=O)c2ccccc2)=N/C1=C/c1[nH]c(C)cc1C [Compound 43, {2-[5-(3,5-Dimethyl-1H-pyrrol-2-ylmethylene)-4-methoxy-5H-pyrrol-2-yl]-indol-1-yl}-phenyl-methanone]	0.196 µM	0.298 µM
COC1=CC(c2cc3ccccc3n2C(=O)OCC(O)CO)=N/C1=C\c1[nH]c(C)cc1C (stereo not drawn) [Compound 44, 2-[5-(3,5-Dimethyl-1H-pyrrol-2-ylmethylene)-4-methoxy-5H-pyrrol-2-yl]-indole-1-carboxylic acid 2,3-dihydroxy-propyl ester]	1.26 µM	1.28 µM
Cc1cc(C)c(/C=C2\N=C(c3cc4ccc(F)cc4[nH]3)C=C2OC(C)C)[nH]1 [Compound 45, 2-[5-(3,5-Dimethyl-1H-pyrrol-2-ylmethylene)-4-isopropoxy-5H-pyrrol-2-yl]-6-fluoro-1H-indole]	0.716 µM	0.887 µM
Cc1cc(C)c(/C=C2\N=C(c3cc4ccc(Cl)cc4[nH]3)C=C2OC(C)C)[nH]1 [Compound 46, 6-Chloro-2-[5-(3,5-dimethyl-1H-pyrrol-2-ylmethylene)-4-isopropoxy-5H-pyrrol-2-yl]-1H-indole]	0.261 µM	0.245 µM
